Results on 38 molecules are retold here after patent publication US20240299385A1 (ReWind Therapeutics NV, priority 2021, published 2024).

Each structure is given as a SMILES string. Bounds are passed on as bounds.

Broadly, the IC50 is the concentration at which inhibition is half-maximal.

For the test, the target named is T1, human GPR17 receptor (Homo sapiens, UniProt Q13304).
T1 construct: host or cells: HEK-293
T1 sequence (Q13304 whole entry): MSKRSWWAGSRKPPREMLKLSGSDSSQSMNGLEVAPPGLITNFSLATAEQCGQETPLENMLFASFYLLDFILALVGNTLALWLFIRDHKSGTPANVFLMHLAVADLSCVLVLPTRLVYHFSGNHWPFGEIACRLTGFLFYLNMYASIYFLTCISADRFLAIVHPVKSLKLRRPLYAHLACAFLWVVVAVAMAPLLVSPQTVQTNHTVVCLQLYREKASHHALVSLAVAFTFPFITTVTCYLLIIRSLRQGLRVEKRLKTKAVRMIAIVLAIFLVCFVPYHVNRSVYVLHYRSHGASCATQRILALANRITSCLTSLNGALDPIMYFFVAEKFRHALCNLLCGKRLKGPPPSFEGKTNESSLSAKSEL
Nature of the test: Calcium mobilization functional assay (Fluo-8, FLIPR TETRA) in HEK-293 hGPR17 (Gα-q assay). The format is cell-based. The conditions noted are these: antagonism of MDL29,951 (~EC80) induced Ca2+ signal; cell line (HEK-293 hGPR17 or HEK-293 Suchi5 hGPR17) not given. In short, it runs like this:
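Fluo-8-loaded HEK-293 hGPR17 cells (60 min dye loading, room temperature) were preincubated with compound for twenty minutes, then challenged with agonist MDL29,951 at ~EC80, 500 nM. Intracellular calcium release via Gα-q was recorded as FLIPR fluorescence for a further 2 minutes; compounds tested in duplicate.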
As to `N#Cc1cc(F)c(NS(=O)(=O)c2c[nH]c(-c3ccccn3)c2)cc1Cl` [Cpd 357, N-(5-chloro-4-cyano-2-fluoro-phenyl)-5-(2-pyridyl)-1H-pyrrole-3-sulfonamide], the IC50 is less than 0.5 µM.

Take `N#Cc1ccc(NS(=O)(=O)c2c[nH]c(C3=CCCCC3)c2)c(F)c1` [Cpd 358, N-(4-cyano-2-fluoro-phenyl)-5-(cyclohexen-1-yl)-1H-pyrrole-3-sulfonamide]: the IC50 is less than 0.5 µM.

With `O=S(=O)(Nc1cc(F)c(Br)cc1F)c1c[nH]cc1-c1cccc(F)c1` [Cpd 359, N-(4-bromo-2,5-difluoro-phenyl)-4-(3-fluorophenyl)-1H-pyrrole-3-sulfonamide], the concentration for half-maximal inhibition (IC50) is 0.5 to 5 µM.

Take `O=S(=O)(Nc1cc(F)c(OC(F)F)cc1F)c1c[nH]cc1-c1cccc(F)c1` [Cpd 360, N-[4-(difluoromethoxy)-2,5-difluoro-phenyl]-4-(3-fluorophenyl)-1H-pyrrole-3-sulfonamide]: the IC50 was less than 0.5 µM.

Take `O=S(=O)(Nc1cc(F)c(C(F)(F)F)cc1F)c1c[nH]c(-c2ccccc2C(F)(F)F)c1` [Cpd 361, N-[2,5-difluoro-4-(trifluoromethyl)phenyl]-5-[2-(trifluoromethyl)phenyl]-1H-pyrrole-3-sulfonamide]: the IC50 was 0.5 to 5 µM.

As for `O=S(=O)(Nc1cc(F)c(C(F)(F)F)cc1F)c1c[nH]c(-c2ccc(Cl)cc2F)c1` [Cpd 362, 5-(4-chloro-2-fluoro-phenyl)-N-[2,5-difluoro-4-(trifluoromethyl)phenyl]-1H-pyrrole-3-sulfonamide], the IC50 lay within 5 to 50 µM.

With `O=S(=O)(Nc1cc(F)c(C(F)(F)F)cc1F)c1c[nH]c(-c2c(F)cccc2Cl)c1` [Cpd 363, 5-(2-chloro-6-fluoro-phenyl)-N-[2,5-difluoro-4-(trifluoromethyl)phenyl]-1H-pyrrole-3-sulfonamide], the IC50 was in the range of 0.5 to 5 µM.

As to `O=S(=O)(Nc1cc(F)c(C(F)(F)F)cc1F)c1c[nH]cc1-c1cccc(F)c1` [Cpd 364, N-[2,5-difluoro-4-(trifluoromethyl)phenyl]-4-(3-fluorophenyl)-1H-pyrrole-3-sulfonamide], the 50% inhibitory concentration (IC50) was in the range of 0.5 to 5 µM.

Take `O=S(=O)(Nc1cc(F)c(C(F)(F)F)cc1F)c1c[nH]c(-c2cccc(C(F)(F)F)c2)c1` [Cpd 365, N-[2,5-difluoro-4-(trifluoromethyl)phenyl]-5-[3-(trifluoromethyl)phenyl]-1H-pyrrole-3-sulfonamide]: the IC50 was 0.5 to 5 µM.

For the molecule `O=S(=O)(Nc1cc(F)c(C(F)(F)F)cc1F)c1c[nH]c(-c2ccc(F)cc2F)c1` [Cpd 366, 5-(2,4-difluorophenyl)-N-[2,5-difluoro-4-(trifluoromethyl)phenyl]-1H-pyrrole-3-sulfonamide], the IC50 lay within 0.5 to 5 µM.

As to `CSc1cccc(Cc2c[nH]cc2S(=O)(=O)Nc2ccc(C#N)cc2F)c1` [Cpd 367, N-(4-cyano-2-fluoro-phenyl)-4-[(3-methylsulfanylphenyl)methyl]-1H-pyrrole-3-sulfonamide], the IC50 was less than 0.5 µM.

Take `COCc1cccc(Cc2c[nH]cc2S(=O)(=O)Nc2ccc(C#N)cc2F)c1` [Cpd 368, N-(4-cyano-2-fluoro-phenyl)-4-[[3-(methoxymethyl)phenyl]methyl]-1H-pyrrole-3-sulfonamide]: the IC50 lay in the range of 0.5 to 5 µM.

Take `O=S(=O)(Nc1cc(F)c(C(F)(F)F)cc1F)c1c[nH]c(-c2ccc(C(F)(F)F)cn2)c1` [Cpd 369, N-[2,5-difluoro-4-(trifluoromethyl)phenyl]-5-[5-(trifluoromethyl)-2-pyridyl]-1H-pyrrole-3-sulfonamide]: the 50% inhibitory concentration (IC50) was in the range of 5 to 50 µM.

`O=S(=O)(Nc1cc(F)c(C(F)(F)F)cc1F)c1c[nH]c(-c2cc(C(F)(F)F)ccn2)c1` [Cpd 370, N-[2,5-difluoro-4-(trifluoromethyl)phenyl]-5-[4-(trifluoromethyl)-2-pyridyl]-1H-pyrrole-3-sulfonamide]: the IC50 was in the range of 5 to 50 µM.

As for `O=S(=O)(Nc1cc(F)c(C(F)(F)F)cc1F)c1c[nH]c(-c2cccc(Br)n2)c1` [Cpd 371, 5-(6-bromo-2-pyridyl)-N-[2,5-difluoro-4-(trifluoromethyl)phenyl]-1H-pyrrole-3-sulfonamide], the half-inhibitory concentration (IC50) lay in the range of 0.5 to 5 µM.

`N#Cc1ccc(NS(=O)(=O)c2c[nH]c(-c3cccc(Cl)n3)c2)c(F)c1` [Cpd 372, 5-(6-chloro-2-pyridyl)-N-(4-cyano-2-fluoro-phenyl)-1H-pyrrole-3-sulfonamide]: the IC50 was less than 0.5 µM.

With `N#Cc1ccc(NS(=O)(=O)c2c[nH]c(-c3cccc(C(F)(F)F)n3)c2)c(F)c1` [Cpd 373, N-(4-cyano-2-fluoro-phenyl)-5-[6-(trifluoromethyl)-2-pyridyl]-1H-pyrrole-3-sulfonamide], the IC50 lay within 0.5 to 5 µM.

`N#Cc1ccc(NS(=O)(=O)c2c[nH]c(-c3cccc(Br)n3)c2)c(F)c1` [Cpd 374, 5-(6-bromo-2-pyridyl)-N-(4-cyano-2-fluoro-phenyl)-1H-pyrrole-3-sulfonamide]: the IC50 was less than 0.5 µM.

Consider `O=S(=O)(Nc1cnc(C(F)(F)F)s1)c1c[nH]c(-c2ccccc2)c1` [Cpd 375, 5-phenyl-N-[2-(trifluoromethyl)thiazol-5-yl]-1H-pyrrole-3-sulfonamide], for which the IC50 lay in the range of 5 to 50 µM.

Consider `O=S(=O)(Nc1cc(Cl)c(C(F)(F)F)cc1F)c1c[nH]c(-c2ccccc2)c1` [Cpd 378, N-[5-chloro-2-fluoro-4-(trifluoromethyl)phenyl]-5-phenyl-1H-pyrrole-3-sulfonamide], for which the IC50 fell in the range of 0.5 to 5 µM.

With `O=S(=O)(Nc1cc(Cl)c(C(F)(F)F)cc1F)c1c[nH]c(-c2ccccn2)c1` [Cpd 379, N-[5-chloro-2-fluoro-4-(trifluoromethyl)phenyl]-5-pyridin-2-yl-1H-pyrrole-3-sulfonamide], the IC50 was in the range of 0.5 to 5 µM.

In the case of `N#Cc1ccc(NS(=O)(=O)c2c[nH]c(-c3cccc4cccnc34)c2)c(F)c1` [Cpd 380, N-(4-cyano-2-fluorophenyl)-5-(guinolin-8-yl)-1H-pyrrole-3-sulfonamide], the IC50 was less than 0.5 µM.

On to `N#Cc1ccc(NS(=O)(=O)c2c[nH]cc2-c2cccc3ccccc23)c(F)c1` [Cpd 381, N-(4-cyano-2-fluorophenyl)-4-naphthalen-1-yl-1H-pyrrole-3-sulfonamide], for which the IC50 lay in the range of 5 to 50 µM.

On to `N#Cc1ccc(NS(=O)(=O)c2c[nH]c(-c3cccc4ccccc34)c2)c(F)c1` [Cpd 382, N-(4-cyano-2-fluorophenyl)-5-naphthalen-1-yl-1H-pyrrole-3-sulfonamide], for which the IC50 lay in the range of 0.5 to 5 µM.

Take `Cc1c(C(F)(F)F)ccc(NS(=O)(=O)c2c[nH]c(-c3ccccn3)c2)c1F` [Cpd 383, N-[2-fluoro-3-methyl-4-(trifluoromethyl)phenyl]-5-pyridin-2-yl-1H-pyrrole-3-sulfonamide]: the half-maximal inhibitory concentration (IC50) was in the range of 5 to 50 µM.

On to `Cc1ccccc1Cc1c[nH]cc1S(=O)(=O)Nc1ccc(C#N)cc1F` [Cpd 384, N-(4-cyano-2-fluorophenyl)-4-[(2-methylphenyl)methyl]-1H-pyrrole-3-sulfonamide], for which the IC50 is 0.5 to 5 µM.

Take `Cc1ccc(Cc2c[nH]cc2S(=O)(=O)Nc2ccc(C#N)cc2F)cc1` [Cpd 385, N-(4-cyano-2-fluorophenyl)-4-[(4-methylphenyl)methyl]-1H-pyrrole-3-sulfonamide]: the half-inhibitory concentration (IC50) was 5 to 50 µM.

For `N#Cc1ccc(NS(=O)(=O)c2c[nH]cc2Cc2ccccc2C(F)(F)F)c(F)c1` [Cpd 386, N-(4-cyano-2-fluorophenyl)-4-[[2-(trifluoromethyl)phenyl]methyl]-1H-pyrrole-3-sulfonamide], the IC50 is 5 to 50 µM.

With `N#Cc1ccc(NS(=O)(=O)c2c[nH]cc2Cc2ccc(C(F)(F)F)cc2)c(F)c1` [Cpd 387, N-(4-cyano-2-fluorophenyl)-4-[[4-(trifluoromethyl)phenyl]methyl]-1H-pyrrole-3-sulfonamide], the IC50 is 5 to 50 µM.

For `N#Cc1ccc(NS(=O)(=O)c2c[nH]cc2Cc2ccccc2OC(F)(F)F)c(F)c1` [Cpd 388, N-(4-cyano-2-fluorophenyl)-4-[[2-(trifluoromethoxy)phenyl]methyl]-1H-pyrrole-3-sulfonamide], the IC50 lay within 0.5 to 5 µM.

As for `N#Cc1ccc(NS(=O)(=O)c2c[nH]cc2Cc2ccc(OC(F)(F)F)cc2)c(F)c1` [Cpd 389, N-(4-cyano-2-fluorophenyl)-4-[[4-(trifluoromethoxy)phenyl]methyl]-1H-pyrrole-3-sulfonamide], the IC50 lay in the range of 5 to 50 µM.

Consider `N#Cc1ccc(NS(=O)(=O)c2c[nH]cc2Cc2cccc(Br)c2)c(F)c1` [Cpd 391, 4-[(3-bromophenyl)methyl]-N-(4-cyano-2-fluorophenyl)-1H-pyrrole-3-sulfonamide], for which the IC50 is less than 0.5 µM.

In the case of `N#Cc1ccc(NS(=O)(=O)c2c[nH]cc2Cc2ccsc2)c(F)c1` [Cpd 392, N-(4-cyano-2-fluorophenyl)-4-(thiophen-3-ylmethyl)-1H-pyrrole-3-sulfonamide], the IC50 is less than 0.5 µM.

As for `O=S(=O)(Nc1cc(F)c(C(F)(F)F)cc1F)c1c[nH]c(-c2cc(F)ccc2F)c1` [Cpd 393, 5-(2,5-difluorophenyl)-N-[2,5-difluoro-4-(trifluoromethyl)phenyl]-1H-pyrrole-3-sulfonamide], the IC50 is less than 0.5 µM.

On to `COc1c(Cl)cccc1-c1cc(S(=O)(=O)Nc2ccc(C#N)cc2F)c[nH]1` [Cpd 394, 5-(3-chloro-2-methoxyphenyl)-N-(4-cyano-2-fluorophenyl)-1H-pyrrole-3-sulfonamide], for which the IC50 is less than 0.5 µM.

Regarding `N#Cc1ccc(NS(=O)(=O)c2c[nH]c(-c3nccc4ccccc34)c2)c(F)c1` [Cpd 396, N-(4-cyano-2-fluorophenyl)-5-isoquinolin-1-yl-1H-pyrrole-3-sulfonamide], the IC50 is less than 0.5 µM.

Regarding `N#Cc1ccc(NS(=O)(=O)c2c[nH]c(-c3ccccc3OC3CC3)c2)c(F)c1` [Cpd 397, N-(4-cyano-2-fluorophenyl)-5-(2-cyclopropyloxyphenyl)-1H-pyrrole-3-sulfonamide], the half-maximal inhibitory concentration (IC50) was 0.5 to 5 µM.

For `N#Cc1ccc(NS(=O)(=O)c2c[nH]cc2-c2cccs2)c(F)c1` [Cpd 398, N-(4-cyano-2-fluorophenyl)-4-thiophen-2-yl-1H-pyrrole-3-sulfonamide], the IC50 was 0.5 to 5 µM.
